# Data from US20230111853A1, “COMPOUNDS MODULATING PROTEIN RECRUITMENT AND/OR DEGRADATION” (Orionis Biosciences, Inc., priority 2019, published 2023).
# System: IKZF1, ASS1 and SALL4 recruitment to CRBN
# Assay: Recruitment assessment: recruitment of any tested substrate from among IKZF1, ASS1 and SALL4
# Assay type: cell-based
# Settings: any tested substrate at any tested compound concentration
# Procedure: In this experimental set-up, cells were transfected with a construct encoding a CRBN-fusion protein and another one encoding a substrate-fusion protein. Test compound activity was assessed with increasing concentrations of test compounds (dose-response studies) to monitor the ability to promote CRBN-ligand-induced protein interaction.
# Full size proteins were fused for each of the target proteins tested, except in the case of IKZF1 where isoform 7 was used. For the study, the following were used: IKZF1 recruitment: pSEL-CRBN+pMG1-IKZF1(isoform 7); ASS1 recruitment: pSEL-CRBN+pMG1-ASS1. SALL4 recruitment: pSEL-SALL4+pMG1-CRBN. […] Luciferase activity was measured 24 hours after test compound treatment using the Luciferase Assay System kit (PROMEGA, Madison, Wis.) with an Ensight plate reader (PERKIN ELMER LIFE SCIENCES, Waltham, Mass.). Data points depicted fold induction of the average luciferase activity of triplicate samples from EPO+test compound treated cells versus EPO only treated cells. Error bars represent standard deviations. Curves were fit using 4-parameter nonlinear regression in […] PRISM software.
row,Structure (SMILES),Recruitment Assessment
1,"Nc1nc(Nc2ccc3c(c2)CN(C2CCC(=O)NC2=O)C3=O)nc2sccc12 (stereo not drawn) [C80379, 3-[5-[(4-aminothieno[2,3-d]pyrimidin-2-yl)amino]-1-oxo-isoindolin-2-yl]piperidine-2,6-dione]",TRUE
2,"CC1CCCCN1C(=O)CNc1ccc2c(c1)C(=O)N(C1CCC(=O)NC1=O)C2 (stereo not drawn) [C12584, 3-[6-[[2-(2-methyl-1-piperidyl)-2-oxo-ethyl]amino]-1-oxo-isoindolin-2-yl]piperidine-2,6-dione]",FALSE
3,"O=C1CCC(N2C(=O)C3=C(CCC3)C2=O)C(=O)N1 (stereo not drawn) [C64324, 2-(2,6-dioxo-3-piperidyl)-5,6-dihydro-4H-cyclopenta[c] pyrrole-1,3-dione]",FALSE
4,"Cc1ccc(NC(=O)NCc2cc(C)c3c(c2)CN(C2CCC(=O)NC2=O)C3=O)cc1Cl (stereo not drawn) [C58181, 1-(3-chloro-4-methyl-phenyl)-3-[[2-(2,6-dioxo-3-piperidyl)-7-methyl-1-oxo-isoindolin-5-yl]methyl]urea]",TRUE
5,"O=C1CCC(N2Cc3cc(O)ccc3C2=O)C(=O)N1 (stereo not drawn) [C28891, 3-(5-hydroxy-1-oxo-isoindolin-2-yl)piperidine-2,6-dione]",TRUE
6,"O=C(CNc1ccc2c(c1)C(=O)N(C1CCC(=O)NC1=O)C2)NCc1ccccc1 (stereo not drawn) [C84966, N-benzyl-2-[[2-(2,6-dioxo-3-piperidyl)-3-oxo-isoindolin-5-yl]amino]acetaimde]",FALSE
7,"O=C1CCC(N2Cc3ccc(NCC(=O)N4CCCCC4)cc3C2=O)C(=O)N1 (stereo not drawn) [C12581, 3-[1-oxo-6-[[2-oxo-2-(1-piperidyl)ethyl]amino]isoindolin-2-yl]piperidine-2,6-dione]",FALSE
8,"O=C1CCC(N2Cc3ccc(Nc4[nH]cnc5nccc4-5)cc3C2=O)C(=O)N1 (stereo not drawn) [C80385, 3-[1-oxo-6-(3H-pyrrolo[2,3-d]pyrimidin-4-ylamino)isoindolin-2-yl] piperidine-2,6-dione]",FALSE
9,"CN(CC1CC1)C(=O)CNc1ccc2c(c1)C(=O)N(C1CCC(=O)NC1=O)C2 (stereo not drawn) [C95338, N-(cyclopropylmethyl)-2-[[2-(2,6-dioxo-3-piperidyl)-3-oxo-isoindolin-5-yl]amino]-N-methyl-acetamide]",FALSE
10,"CC1CN(C)CCN1C(=O)CNc1ccc2c(c1)C(=O)N(C1CCC(=O)NC1=O)C2 (stereo not drawn) [C12595, 3-[6-[[2-(2,4-dimethylpiperazin-1-yl)-2-oxo-ethyl]amino]-1-oxo-isoindolin-2-yl]piperidine-2,6-dione]",FALSE
11,"CC1CN(C(=O)CNc2ccc3c(c2)C(=O)N(C2CCC(=O)NC2=O)C3)CC(=O)N1 (stereo not drawn) [C12598, 3-[6-[[2-(3-methyl-5-oxo-piperazin-1-yl)-2-oxo-ethyl]amino]-1-oxo-isoindolin-2-yl]piperidine-2,6-dione]",FALSE
12,"O=C1CCC(N2Cc3cccc(O)c3C2=O)C(=O)N1 (stereo not drawn) [C28973, 3-(7-hydroxy-1-oxo-isoindolin-2-yl)piperidine-2,6-dione]",TRUE
13,"O=C1CCC(N2Cc3ccc(Nc4cnc5ccccc5n4)cc3C2=O)C(=O)N1 (stereo not drawn) [C80386, 3-[1-oxo-6-(quinoxalin-2-ylamino)isoindolin-2-yl]piperidine-2,6-dione]",FALSE
14,"Cc1nc2cccc(N)c2c(=O)n1C1CCC(=O)NC1=O (stereo not drawn) [CC-122, 3-(5-amino-2-methyl-4-oxo-quinazolin-3-yl)piperidine-2,6-dione, reference compound]",TRUE
15,"O=C1Cc2ccccc2C(=O)N1 [C15352, 4H-isoquinoline-1,3-dione]",FALSE
16,"Nc1cccc2c1CCN(C1CCC(=O)NC1=O)C2=O (stereo not drawn) [C47933, 3-(5-amino-1-oxo-3,4-dihydroisoquinolin-2-yl)piperidine-2,6-dione]",TRUE
17,"O=C1CCC(N2Cc3ccc(NCC(=O)N4Cc5ccccc5C4)cc3C2=O)C(=O)N1 (stereo not drawn) [C95330, 3-[6-[(2-isoindolin-2-yl-2-oxo-ethyl)amino]-1-oxo-isoindolin-2-yl] piperidine-2,6-dione]",FALSE
18,"COC1c2ccccc2C(=O)N1C1CCC(=O)NC1=O (stereo not drawn) [C56572, 3-(1-methoxy-3-oxo-isoindolin-2-yl)piperidine-2,6-dione]",FALSE
19,"Cc1c(N)cccc1C(=O)NC1CCC(=O)NC1=O (stereo not drawn) [C38930, 3-amino-N-(2,6-dioxo-3-piperidyl)-2-methyl-benzamide]",FALSE
20,"Cc1cccc2c1S(=O)(=O)N(C1CCC(=O)NC1=O)C2=O (stereo not drawn) [C75688, 3-(7-methyl-1,1,3-trioxo-1,2-benzothiazol-2-yl)piperidine-2,6-dione]",FALSE
21,"COc1cccc2c1C(=O)N(C1CCC(=O)NC1=O)C2 (stereo not drawn) [C29137, 3-(7-methoxy-1-oxo-isoindolin-2-yl)piperidine-2,6-dione]",FALSE
22,"O=C1CC[C@H](N2Cc3c(OCc4ccc(CN5CCOCC5)cc4)cccc3C2=O)C(=O)N1 [CC-220, (3S)-3-[4-[[4-(morpholinomethyl)phenyl]methoxy]-1-oxo-isoindolin-2-yl]piperidine-2,6-dione, reference compound]",TRUE
23,"CC(=O)Nc1ccc2c(c1)C(=O)N(C1CCC(=O)NC1=O)C2 (stereo not drawn) [C29408, N-[2-(2,6-dioxo-3-piperidyl)-3-oxo-isoindolin-5-yl]acetamide]",FALSE
24,"O=C1CCC(N2Cc3cc(Nc4ncnc5ccccc45)ccc3C2=O)C(=O)N1 (stereo not drawn) [C80373, 3-[-oxo-5-(quinazolin-4-ylamino)isoindolin-2-yl]piperidine-2,6-dione]",TRUE
25,"CC1Cc2ccccc2N1C(=O)CNc1ccc2c(c1)C(=O)N(C1CCC(=O)NC1=O)C2 (stereo not drawn) [C95336, 3-[6-[[2-(2-methylindolin-1-yl)-2-oxo-ethyl]amino]-1-oxo-isoindolin-2-yl]piperidine-2,6-dione]",FALSE
26,"NC(=O)CNc1ccc2c(c1)C(=O)N(C1CCC(=O)NC1=O)C2 (stereo not drawn) [C84961, 2-[[2-(2,6-dioxo-3-piperidyl)-3-oxo-isoindolin-5-yl]amino]acetamide]",FALSE
27,"O=C1CCC(N2C(=O)CC3(Cc4ccccc4C3)C2=O)C(=O)N1 (stereo not drawn) [C64329, 1′-(2,6-dioxo-3-piperidyl)spiro[indane-2,3′-pyrrolidine]-2′,5′-dione]",FALSE
28,"Cn1ncc2c(Nc3ccc4c(c3)CN(C3CCC(=O)NC3=O)C4=O)ncnc21 (stereo not drawn) [C80374, 3-[5-[(1-methylpyrazolo[3,4-d]pyrimidin-4-yl)amino]-1-oxo-isoindolin-2-yl]piperidine-2,6-dione]",TRUE
29,"CN(C)CC(=O)Nc1ccc2c(c1)C(=O)N(C1CCC(=O)NC1=O)C2 (stereo not drawn) [C49708, 2-(dimethylamino)-N-[2-(2,6-dioxo-3-piperidyl)-3-oxo-isoindolin-5-yl]acetamide]",FALSE
30,"CN1CCC2(CC1)CC(=O)N(C1CCC(=O)NC1=O)C2=O (stereo not drawn) [C64372, 2-(2,6-dioxo-3-piperidyl)-8-methyl-2,8-diazaspiro[4.5]decane-1,3-dione]",FALSE
